Test results: patent US7074789B2, “Kinase inhibitors” (Amgen Inc., priority 1999, dated 2006)

Tests used:
Format in all cases: biochemical
[1] = molecular target: T1, Lck (Homo sapiens, UniProt P06239); assay: Kinase inhibition assay (33P transfer), Lck; conditions: Table 3; read-out: Lck-1
T1 construct: Kinases are expressed as either kinase domains or full length constructs; made in house
How it was run: (§1)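 Kinase domains or full-length kinases, GST- or His-tagged and expressed in E. coli or baculovirus/High Five cells, transferred 33PO4 from ATP onto plate-bound poly(Glu,Tyr) 4:1 or poly(Arg,Ser) 3:1. After incubation, plates were washed with 0.5% phosphoric acid and counted by liquid scintillation.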

[2] = molecular target: T2, Zap-70 (Homo sapiens, UniProt P43403); assay: Kinase inhibition assay (33P transfer), Zap-70; conditions: Table 3; read-out: Zap-1
T2 construct: Kinases are expressed as either kinase domains or full length constructs; made in house
T2 sequence (P43403 1-619): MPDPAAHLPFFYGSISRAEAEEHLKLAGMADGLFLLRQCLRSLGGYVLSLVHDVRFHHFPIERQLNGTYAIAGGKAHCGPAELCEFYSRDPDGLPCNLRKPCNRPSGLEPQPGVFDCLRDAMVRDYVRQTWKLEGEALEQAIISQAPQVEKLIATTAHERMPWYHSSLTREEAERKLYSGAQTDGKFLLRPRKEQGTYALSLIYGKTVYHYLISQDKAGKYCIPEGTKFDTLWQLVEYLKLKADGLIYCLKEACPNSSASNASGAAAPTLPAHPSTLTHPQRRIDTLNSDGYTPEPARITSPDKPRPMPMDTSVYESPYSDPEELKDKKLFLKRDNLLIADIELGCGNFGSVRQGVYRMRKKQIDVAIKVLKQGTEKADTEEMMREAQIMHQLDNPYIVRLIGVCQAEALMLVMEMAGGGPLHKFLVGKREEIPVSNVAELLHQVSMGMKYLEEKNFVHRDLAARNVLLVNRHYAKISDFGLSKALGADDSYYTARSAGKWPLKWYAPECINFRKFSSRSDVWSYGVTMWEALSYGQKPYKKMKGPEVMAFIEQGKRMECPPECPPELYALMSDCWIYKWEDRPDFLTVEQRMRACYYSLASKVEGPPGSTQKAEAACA
How it was run: as §1

[3] = molecular target: T3, Itk (Homo sapiens, UniProt Q08881); assay: Kinase inhibition assay (33P transfer), Itk; conditions: Table 3; read-out: Itk-1
T3 construct: Kinases are expressed as either kinase domains or full length constructs; made in house
T3 sequence (Q08881 1-620): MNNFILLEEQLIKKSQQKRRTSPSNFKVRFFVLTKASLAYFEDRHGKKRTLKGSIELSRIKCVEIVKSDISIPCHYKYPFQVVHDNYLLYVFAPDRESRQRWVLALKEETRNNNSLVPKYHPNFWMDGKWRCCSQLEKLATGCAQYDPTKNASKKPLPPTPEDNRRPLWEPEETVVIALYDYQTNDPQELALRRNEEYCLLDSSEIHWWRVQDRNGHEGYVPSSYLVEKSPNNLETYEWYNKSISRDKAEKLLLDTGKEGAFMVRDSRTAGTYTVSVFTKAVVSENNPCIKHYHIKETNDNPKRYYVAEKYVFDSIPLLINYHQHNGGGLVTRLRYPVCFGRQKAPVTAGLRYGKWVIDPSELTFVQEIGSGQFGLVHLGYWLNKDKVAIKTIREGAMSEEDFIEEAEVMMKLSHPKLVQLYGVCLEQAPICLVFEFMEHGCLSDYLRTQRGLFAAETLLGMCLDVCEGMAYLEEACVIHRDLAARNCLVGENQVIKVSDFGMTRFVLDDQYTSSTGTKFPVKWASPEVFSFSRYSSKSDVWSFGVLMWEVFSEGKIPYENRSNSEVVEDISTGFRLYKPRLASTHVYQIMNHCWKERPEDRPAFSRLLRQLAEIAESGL
How it was run: (§2)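 Kinase domains or full-length enzymes, GST- or polyHis-tagged, were expressed in E. coli or baculovirus High Five cells and affinity-purified. Transfer of 33PO4 from ATP onto plate-bound poly(Glu,Tyr) 4:1 or poly(Arg,Ser) 3:1 was counted by liquid scintillation after a 0.5% phosphoric acid wash. IC50 = concentration halving incorporation.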

[4] = molecular target: T4, EGFR (Homo sapiens, UniProt P00533); assay: Kinase inhibition assay (33P transfer), EGFR; conditions: Table 2, kinase inhibition class; read-out: EGFR-1
T4 construct: Kinases are expressed as either kinase domains or full length constructs; made in house
How it was run: as §2

[5] = molecular target: T5, Kdr (Homo sapiens, UniProt P35968); assay: Kinase inhibition assay (33P transfer), Kdr; conditions: Table 3; read-out: KDR-1
T5 construct: Kinases are expressed as either kinase domains or full length constructs; made in house
T5 sequence (P35968 20-1356, species assumed): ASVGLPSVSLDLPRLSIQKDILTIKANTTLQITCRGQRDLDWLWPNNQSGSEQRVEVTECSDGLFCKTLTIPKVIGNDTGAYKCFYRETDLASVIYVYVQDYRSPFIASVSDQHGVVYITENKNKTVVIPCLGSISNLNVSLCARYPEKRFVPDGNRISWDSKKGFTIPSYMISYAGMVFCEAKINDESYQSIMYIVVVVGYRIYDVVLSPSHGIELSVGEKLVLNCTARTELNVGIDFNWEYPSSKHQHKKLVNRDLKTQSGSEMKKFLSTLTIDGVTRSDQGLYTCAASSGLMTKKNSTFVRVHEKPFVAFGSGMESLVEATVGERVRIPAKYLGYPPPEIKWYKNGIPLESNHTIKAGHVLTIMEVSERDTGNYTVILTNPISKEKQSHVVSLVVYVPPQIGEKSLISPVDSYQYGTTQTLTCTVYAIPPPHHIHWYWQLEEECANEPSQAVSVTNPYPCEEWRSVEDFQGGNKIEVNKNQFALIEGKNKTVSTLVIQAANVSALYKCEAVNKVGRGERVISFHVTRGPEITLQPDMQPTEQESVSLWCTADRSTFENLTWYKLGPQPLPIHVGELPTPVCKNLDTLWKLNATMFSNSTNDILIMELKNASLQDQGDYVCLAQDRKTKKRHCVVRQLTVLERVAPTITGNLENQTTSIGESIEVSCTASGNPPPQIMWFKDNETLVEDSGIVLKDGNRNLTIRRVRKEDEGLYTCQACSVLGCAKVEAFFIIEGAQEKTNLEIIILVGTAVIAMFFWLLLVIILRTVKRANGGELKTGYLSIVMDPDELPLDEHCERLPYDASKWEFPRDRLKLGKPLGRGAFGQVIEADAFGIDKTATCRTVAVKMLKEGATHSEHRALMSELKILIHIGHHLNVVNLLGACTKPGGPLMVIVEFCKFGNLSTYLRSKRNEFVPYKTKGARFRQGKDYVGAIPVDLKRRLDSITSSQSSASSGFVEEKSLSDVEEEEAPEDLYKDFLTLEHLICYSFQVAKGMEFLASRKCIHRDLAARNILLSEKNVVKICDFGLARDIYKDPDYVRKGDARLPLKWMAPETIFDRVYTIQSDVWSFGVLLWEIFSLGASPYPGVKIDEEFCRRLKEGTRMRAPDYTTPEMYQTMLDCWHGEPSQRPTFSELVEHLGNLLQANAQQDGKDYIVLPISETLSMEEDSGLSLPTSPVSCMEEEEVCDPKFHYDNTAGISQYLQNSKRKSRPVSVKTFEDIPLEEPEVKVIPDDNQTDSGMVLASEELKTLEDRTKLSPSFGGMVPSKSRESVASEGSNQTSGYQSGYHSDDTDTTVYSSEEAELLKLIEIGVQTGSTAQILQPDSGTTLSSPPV
How it was run: as §1

[6] = molecular target: T6, Tek (Homo sapiens, UniProt Q02763); assay: Kinase inhibition assay (33P transfer), Tek; conditions: read-out: Tek-1
T6 construct: Kinases are expressed as either kinase domains or full length constructs; made in house
How it was run: as §2

[7] = molecular target: T7, c-Met (Homo sapiens, UniProt P08581); assay: Kinase inhibition assay (33P transfer), c-Met; conditions: Table 2, kinase inhibition class; read-out: Met-1
T7 construct: Kinases are expressed as either kinase domains or full length constructs; made in house
T7 sequence (P08581 25-1390): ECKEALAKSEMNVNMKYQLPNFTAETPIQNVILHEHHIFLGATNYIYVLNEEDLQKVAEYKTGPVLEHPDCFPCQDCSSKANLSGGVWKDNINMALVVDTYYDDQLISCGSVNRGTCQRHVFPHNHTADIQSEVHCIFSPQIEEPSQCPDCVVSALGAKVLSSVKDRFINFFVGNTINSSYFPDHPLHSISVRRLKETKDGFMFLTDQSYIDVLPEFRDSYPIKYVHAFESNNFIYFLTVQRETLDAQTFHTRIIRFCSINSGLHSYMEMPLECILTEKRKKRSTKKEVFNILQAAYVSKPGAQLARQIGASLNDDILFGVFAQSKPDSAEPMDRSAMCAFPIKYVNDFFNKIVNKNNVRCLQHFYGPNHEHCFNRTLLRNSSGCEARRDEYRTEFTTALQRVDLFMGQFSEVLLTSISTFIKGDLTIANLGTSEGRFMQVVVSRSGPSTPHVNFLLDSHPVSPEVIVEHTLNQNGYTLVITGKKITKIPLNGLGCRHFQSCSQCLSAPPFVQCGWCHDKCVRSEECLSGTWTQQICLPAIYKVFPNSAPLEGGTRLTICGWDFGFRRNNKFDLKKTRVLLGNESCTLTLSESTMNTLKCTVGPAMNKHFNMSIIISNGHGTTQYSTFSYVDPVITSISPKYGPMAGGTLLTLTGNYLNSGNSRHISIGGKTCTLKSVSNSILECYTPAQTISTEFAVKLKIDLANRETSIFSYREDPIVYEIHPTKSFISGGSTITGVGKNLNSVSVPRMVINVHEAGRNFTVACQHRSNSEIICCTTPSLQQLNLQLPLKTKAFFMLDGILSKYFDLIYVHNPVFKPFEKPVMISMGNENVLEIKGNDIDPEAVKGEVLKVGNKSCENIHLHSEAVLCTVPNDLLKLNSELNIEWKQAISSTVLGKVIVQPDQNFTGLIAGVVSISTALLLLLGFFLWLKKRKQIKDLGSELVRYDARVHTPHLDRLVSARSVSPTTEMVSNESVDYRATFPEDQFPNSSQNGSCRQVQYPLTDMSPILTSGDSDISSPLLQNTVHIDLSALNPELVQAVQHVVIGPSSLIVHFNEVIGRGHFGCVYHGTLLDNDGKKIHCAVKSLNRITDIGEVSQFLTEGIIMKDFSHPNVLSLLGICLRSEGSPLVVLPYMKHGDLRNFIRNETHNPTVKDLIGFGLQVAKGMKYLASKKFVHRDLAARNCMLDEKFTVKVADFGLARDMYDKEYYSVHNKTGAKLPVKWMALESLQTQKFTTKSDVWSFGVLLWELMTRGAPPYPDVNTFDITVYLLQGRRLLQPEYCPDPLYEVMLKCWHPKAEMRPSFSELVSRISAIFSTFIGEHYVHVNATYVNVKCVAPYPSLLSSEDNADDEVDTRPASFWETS
How it was run: as §2

[8] = molecular target: T8, AKT (Homo sapiens, UniProt Q9Y243); assay: Kinase inhibition assay (33P transfer), AKT; conditions: Table 2, kinase inhibition class; read-out: AKT3-1
T8 construct: Kinases are expressed as either kinase domains or full length constructs; made in house
T8 sequence (Q9Y243 whole entry, the tested form may be a part): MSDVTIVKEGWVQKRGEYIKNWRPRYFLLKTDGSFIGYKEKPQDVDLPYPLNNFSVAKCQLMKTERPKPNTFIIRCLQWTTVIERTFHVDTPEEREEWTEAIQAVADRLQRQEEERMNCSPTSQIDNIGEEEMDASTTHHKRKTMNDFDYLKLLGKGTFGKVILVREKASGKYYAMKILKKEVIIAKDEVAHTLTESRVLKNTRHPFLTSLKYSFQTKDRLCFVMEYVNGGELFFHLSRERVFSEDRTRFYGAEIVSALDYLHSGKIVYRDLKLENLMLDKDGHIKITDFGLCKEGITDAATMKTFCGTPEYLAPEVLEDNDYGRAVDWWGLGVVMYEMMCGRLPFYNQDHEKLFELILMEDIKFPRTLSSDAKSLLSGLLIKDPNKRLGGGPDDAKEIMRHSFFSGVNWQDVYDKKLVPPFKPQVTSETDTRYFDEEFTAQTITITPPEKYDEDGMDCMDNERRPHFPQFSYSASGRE
How it was run: as §1

[9] = molecular target: T9, IGFR-1 (Homo sapiens, UniProt P08069); assay: Kinase inhibition assay (33P transfer), IGFR-1; conditions: Table 2, kinase inhibition class
T9 construct: Kinases are expressed as either kinase domains or full length constructs; made in house
T9 sequence (P08069 31-1367): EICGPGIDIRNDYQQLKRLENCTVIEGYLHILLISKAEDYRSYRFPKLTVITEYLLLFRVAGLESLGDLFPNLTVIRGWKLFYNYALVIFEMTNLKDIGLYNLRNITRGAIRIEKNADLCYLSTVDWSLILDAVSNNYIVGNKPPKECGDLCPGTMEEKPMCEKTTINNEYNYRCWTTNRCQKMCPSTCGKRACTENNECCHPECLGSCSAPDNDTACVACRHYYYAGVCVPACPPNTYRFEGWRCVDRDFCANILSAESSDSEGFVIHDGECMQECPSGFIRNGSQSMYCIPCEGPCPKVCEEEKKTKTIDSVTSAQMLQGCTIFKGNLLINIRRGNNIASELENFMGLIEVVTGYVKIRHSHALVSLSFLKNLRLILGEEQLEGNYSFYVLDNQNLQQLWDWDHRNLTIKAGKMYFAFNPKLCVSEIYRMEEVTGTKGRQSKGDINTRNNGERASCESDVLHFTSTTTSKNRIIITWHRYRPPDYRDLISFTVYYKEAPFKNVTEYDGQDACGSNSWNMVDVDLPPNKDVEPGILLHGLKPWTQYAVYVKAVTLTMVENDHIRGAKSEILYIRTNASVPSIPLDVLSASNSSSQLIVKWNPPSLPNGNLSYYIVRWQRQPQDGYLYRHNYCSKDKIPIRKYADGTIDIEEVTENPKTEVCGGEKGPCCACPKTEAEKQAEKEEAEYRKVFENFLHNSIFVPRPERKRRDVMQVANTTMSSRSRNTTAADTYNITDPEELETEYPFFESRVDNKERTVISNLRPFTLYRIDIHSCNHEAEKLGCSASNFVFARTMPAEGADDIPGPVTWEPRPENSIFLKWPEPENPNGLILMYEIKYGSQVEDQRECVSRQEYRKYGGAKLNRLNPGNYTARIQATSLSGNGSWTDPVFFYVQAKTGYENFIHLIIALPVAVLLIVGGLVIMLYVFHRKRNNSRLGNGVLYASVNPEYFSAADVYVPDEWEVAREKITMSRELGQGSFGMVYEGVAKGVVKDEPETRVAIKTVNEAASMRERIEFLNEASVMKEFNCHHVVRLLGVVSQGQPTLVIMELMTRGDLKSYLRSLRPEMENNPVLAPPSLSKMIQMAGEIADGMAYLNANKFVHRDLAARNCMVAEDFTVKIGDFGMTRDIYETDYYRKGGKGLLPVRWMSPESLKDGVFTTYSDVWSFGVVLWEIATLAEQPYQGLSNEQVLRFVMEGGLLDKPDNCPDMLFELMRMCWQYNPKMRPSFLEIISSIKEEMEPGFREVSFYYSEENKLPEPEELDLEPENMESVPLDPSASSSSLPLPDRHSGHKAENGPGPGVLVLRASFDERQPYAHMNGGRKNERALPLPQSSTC

[10] = molecular target: T10, EPHB4 (Homo sapiens, UniProt P54760); assay: Kinase inhibition assay (33P transfer), EPHB4; conditions: read-out: EPHB4-1
T10 construct: Kinases are expressed as either kinase domains or full length constructs; made in house
T10 sequence (P54760 16-987): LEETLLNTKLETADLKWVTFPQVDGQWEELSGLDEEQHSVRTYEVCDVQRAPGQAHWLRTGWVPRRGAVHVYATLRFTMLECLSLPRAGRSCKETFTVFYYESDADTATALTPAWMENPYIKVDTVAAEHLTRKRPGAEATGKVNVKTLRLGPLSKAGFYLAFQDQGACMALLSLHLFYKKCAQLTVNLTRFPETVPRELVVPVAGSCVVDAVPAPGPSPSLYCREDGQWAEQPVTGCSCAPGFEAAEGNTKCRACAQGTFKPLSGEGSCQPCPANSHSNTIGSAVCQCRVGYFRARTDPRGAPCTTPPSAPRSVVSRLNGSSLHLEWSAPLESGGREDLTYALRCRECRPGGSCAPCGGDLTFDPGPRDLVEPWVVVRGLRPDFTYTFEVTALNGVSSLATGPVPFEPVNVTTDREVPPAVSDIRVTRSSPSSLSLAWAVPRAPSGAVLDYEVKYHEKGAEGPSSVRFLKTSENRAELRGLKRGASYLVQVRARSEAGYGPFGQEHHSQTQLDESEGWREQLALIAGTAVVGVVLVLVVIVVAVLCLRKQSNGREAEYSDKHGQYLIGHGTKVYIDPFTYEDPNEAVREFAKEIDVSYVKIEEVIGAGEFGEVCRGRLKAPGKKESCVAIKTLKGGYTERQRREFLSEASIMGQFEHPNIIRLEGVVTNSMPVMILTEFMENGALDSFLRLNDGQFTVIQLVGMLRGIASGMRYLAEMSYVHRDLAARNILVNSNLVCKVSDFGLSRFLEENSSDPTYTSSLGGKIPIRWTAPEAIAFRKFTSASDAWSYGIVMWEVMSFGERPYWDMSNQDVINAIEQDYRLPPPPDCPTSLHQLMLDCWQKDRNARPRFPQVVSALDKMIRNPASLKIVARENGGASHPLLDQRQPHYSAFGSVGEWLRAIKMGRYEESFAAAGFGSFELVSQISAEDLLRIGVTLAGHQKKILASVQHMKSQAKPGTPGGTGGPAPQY

T1 sequence (P06239 whole entry, species assumed, the tested form may be a part): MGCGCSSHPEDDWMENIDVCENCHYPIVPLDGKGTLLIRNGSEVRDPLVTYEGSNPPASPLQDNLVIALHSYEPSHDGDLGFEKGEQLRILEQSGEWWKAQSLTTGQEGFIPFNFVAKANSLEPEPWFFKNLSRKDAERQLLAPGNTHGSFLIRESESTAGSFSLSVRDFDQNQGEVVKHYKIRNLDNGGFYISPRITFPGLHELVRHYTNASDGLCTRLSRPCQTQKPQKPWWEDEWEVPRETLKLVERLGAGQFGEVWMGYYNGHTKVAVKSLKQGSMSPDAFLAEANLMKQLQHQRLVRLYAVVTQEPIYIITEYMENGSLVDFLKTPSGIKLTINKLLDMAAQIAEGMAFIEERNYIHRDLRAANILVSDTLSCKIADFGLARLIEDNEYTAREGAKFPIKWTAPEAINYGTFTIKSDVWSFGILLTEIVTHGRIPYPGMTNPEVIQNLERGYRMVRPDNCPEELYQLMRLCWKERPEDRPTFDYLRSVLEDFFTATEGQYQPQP

Compound | IC50 [1] [µM] | IC50 [2] [µM] | IC50 [3] [µM] | IC50 [4] [µM] | IC50 [5] [µM] | IC50 [6] [µM] | IC50 [7] [µM] | IC50 [8] [µM] | IC50 [9] [µM] | IC50 [10] [µM]
c1ccc(-c2ncnc(Nc3ccc(OCCCN4CCOCC4)cc3)n2)cc1 [Compound 154] | > 11.5 | > 11.5 | > 11.5 | > 11.5 | 1.02 to 6.13 | > 11.5 | > 11.5 | > 11.5 | 1.02 to 6.13 | 8.94 to 11.5
COc1cc(OC)cc(-c2nnc(Nc3ncnc(Nc4cc(OC)c(OC)c(OC)c4)n3)[nH]2)c1 [Compound 312] | > 9.37 | > 9.37 | > 9.37 | > 9.37 | > 9.37 | > 9.37 | > 9.37 | > 9.37 | > 9.37 | > 9.37
COc1cc(Nc2ncnc(Nc3ccc(O)cc3C)n2)cc(OC)c1OC [Compound 927] | 6.26 to 9.13 | > 11.7 | > 11.7 | 6.26 to 9.13 | 1.04 to 6.26 | > 11.7 | > 11.7 | > 11.7 | > 11.7 | > 11.7
COc1cc(Nc2ncnc(NN3CCOCC3)n2)cc(OC)c1OC [Compound 103] | > 12.4 | > 12.4 | > 12.4 | > 12.4 | > 12.4 | > 12.4 | > 12.4 | 1.1 to 6.62 | 6.62 to 9.66 | 1.1 to 6.62
COc1ccc(CNc2ncnc(Nc3cc(OC)c(OC)c(OC)c3)n2)cc1 [Compound 80] | > 11.3 | > 11.3 | > 11.3 | > 11.3 | > 11.3 | > 11.3 | > 11.3 | > 11.3 | > 11.3 | > 11.3
COc1cc(Nc2ncnc(N3CCC(O)CC3)n2)cc(OC)c1OC [Compound 208] | > 12.5 | > 12.5 | > 12.5 | > 12.5 | 1.11 to 6.64 | > 12.5 | 9.68 to 12.5 | > 12.5 | > 12.5 | > 12.5
COc1cc(Nc2ncnc(Nc3[nH]ncc3-c3cccs3)n2)cc(OC)c1OC [Compound 368] | 8.23 to 10.6 | > 10.6 | > 10.6 | > 10.6 | > 10.6 | > 10.6 | > 10.6 | > 10.6 | > 10.6 | > 10.6
COc1cc(Nc2ncnc(Nc3c(C)n(C)n(-c4ccccc4)c3=O)n2)cc(OC)c1OC [Compound 256] | > 9.71 | > 9.71 | > 9.71 | > 9.71 | 7.55 to 9.71 | > 9.71 | > 9.71 | > 9.71 | > 9.71 | > 9.71
Oc1ccc(Nc2ncnc(Nc3ccc(OCc4ccccc4)cc3)n2)cc1 [Compound 158] | 9.08 to 11.7 | 1.04 to 6.23 | > 11.7 | 1.04 to 6.23 | 1.04 to 6.23 | 6.23 to 9.08 | 1.04 to 6.23 | 1.04 to 6.23 | 6.23 to 9.08 | 1.04 to 6.23
O=c1[nH]c2ccccc2n1-c1ncnc(Nc2ccc(-c3cnco3)cc2)n1 [Compound 379] | > 12.1 | > 12.1 | > 12.1 | > 12.1 | 9.42 to 12.1 | > 12.1 | > 12.1 | > 12.1 | > 12.1 | > 12.1

Continued, values first:

IC50 [1] [µM] | IC50 [2] [µM] | IC50 [3] [µM] | IC50 [4] [µM] | IC50 [5] [µM] | IC50 [6] [µM] | IC50 [7] [µM] | IC50 [8] [µM] | IC50 [9] [µM] | IC50 [10] [µM] | Compound
5.09 to 7.42 | > 9.54 | > 9.54 | 0.848 to 5.09 | > 9.54 | > 9.54 | > 9.54 | > 9.54 | > 9.54 | 5.09 to 7.42 | COc1ccc(Nc2ncnc(N(CC(=O)OC(C)(C)C)c3ccc(Cl)cc3)n2)cc1OC [Compound 973]
0.942 to 5.65 | > 10.6 | > 10.6 | > 10.6 | 0.942 to 5.65 | > 10.6 | > 10.6 | > 10.6 | > 10.6 | > 10.6 | COc1cc(Nc2ncnc(Nc3ccc(N(C)C(C)=O)cc3)n2)cc(OC)c1OC [Compound 81]
5.72 to 8.34 | > 10.7 | 8.34 to 10.7 | > 10.7 | > 10.7 | > 10.7 | > 10.7 | > 10.7 | > 10.7 | > 10.7 | COc1cc(Nc2ncnc(Nc3[nH]ncc3-c3ccccc3)n2)cc(OC)c1OC [Compound 369]
6.84 to 8.8 | > 8.8 | > 8.8 | 4.69 to 6.84 | 6.84 to 8.8 | > 8.8 | > 8.8 | > 8.8 | > 8.8 | > 8.8 | COc1cc(Nc2ncnc(N(CC(=O)OC(C)(C)C)c3ccc4c(c3)OCO4)n2)cc(OC)c1OC [Compound 309]
0.934 to 5.6 | > 10.5 | > 10.5 | > 10.5 | 0.934 to 5.6 | 8.17 to 10.5 | 0.934 to 5.6 | > 10.5 | 0.934 to 5.6 | 5.6 to 8.17 | COc1cc(Nc2ncnc(Nc3nc4ccc(F)cc4s3)n2)cc(OC)c1OC [Compound 317]
5.71 to 8.33 | 8.33 to 10.7 | > 10.7 | 5.71 to 8.33 | 0.952 to 5.71 | > 10.7 | 8.33 to 10.7 | 5.71 to 8.33 | > 10.7 | 8.33 to 10.7 | COc1ccc(Nc2ncnc(Nc3ccc(Br)cc3F)n2)cc1OC [Compound 117]
